Experiment [1] concerns the target Human norepinephrine transporter (NET) (Homo sapiens, UniProt P23975). As to the kind of experiment: Binding assay to human norepinephrine transporter (NET), [3H]-Nisoxetin. The conditions noted are these: human NET enriched membranes, 5 nM [3H]-Nisoxetin. The protocol:
Binding Assay to Human Norepinephrine Transporter (NET).
Human norepinephrine transporter (NET) enriched membranes (5 μg) were incubated with 5 nM of radiolabeled [3H]-Nisoxetin in assay buffer containing 50 mM Tris-HCl, 120 mM NaCl, 5 mM KCl, pH 7.4. NSB (non specific binding) was measured by adding 10 μM of desipramine. The binding of the test compound was measured at five different concentrations. After 60 min incubation at 4° C., binding reaction was terminated by filtering through Multiscreen GF/C (Millipore) presoaked in 0.5% polyethyleneimine in Vacuum Manifold Station, followed by 3 washes with ice-cold filtration buffer containing 50 mM Tris-HCl, 0.9% NaCl, pH 7.4. Filter plates were dried at 60° C. for 1 hour and 30 μl of scintillation cocktail were added to each well before radioactivity reading. Readings were performed in a Trilux 1450 Microbeta radioactive counter (Perkin Elmer).

Experiment [2] deals with Human α2δ-1 Subunit of Cav2.2 Calcium Channel (Homo sapiens, UniProt P54289). As to the kind of experiment: Human α2δ-1 subunit of Cav2.2 calcium channel assay, [3H]-Gabapentin binding. The conditions noted are these: human α2δ-1 enriched membranes, 15 nM [3H]-Gabapentin. The protocol: Human α2δ-1 Subunit of Cav2.2 Calcium Channel Assay
Human α2δ-1 enriched membranes (2.5 μg) were incubated with 15 nM of radiolabeled [3H]-Gabapentin in assay buffer containing Hepes-KOH 10 mM, pH 7.4. NSB (non specific binding) was measured by adding 10 μM pregabalin. The binding of the test compound was measured at five different concentrations. After 60 min incubation at 27° C., binding reaction was terminated by filtering through Multiscreen GF/C (Millipore) presoaked in 0.5% polyethyleneimine in Vacuum Manifold Station, followed by 3 washes with ice-cold filtration buffer containing 50 mM Tris-HCl, pH 7.4. Filter plates were dried at 60° C. for 1 hour and 30 μl of scintillation cocktail were added to each well before radioactivity reading. Readings were performed in a Trilux 1450 Microbeta radioactive counter (Perkin Elmer).

As a reminder, the Ki is the dissociation constant of the complex between target and ligand, obtained from inhibition or displacement.

Chain of Human norepinephrine transporter (NET) (P23975 whole entry): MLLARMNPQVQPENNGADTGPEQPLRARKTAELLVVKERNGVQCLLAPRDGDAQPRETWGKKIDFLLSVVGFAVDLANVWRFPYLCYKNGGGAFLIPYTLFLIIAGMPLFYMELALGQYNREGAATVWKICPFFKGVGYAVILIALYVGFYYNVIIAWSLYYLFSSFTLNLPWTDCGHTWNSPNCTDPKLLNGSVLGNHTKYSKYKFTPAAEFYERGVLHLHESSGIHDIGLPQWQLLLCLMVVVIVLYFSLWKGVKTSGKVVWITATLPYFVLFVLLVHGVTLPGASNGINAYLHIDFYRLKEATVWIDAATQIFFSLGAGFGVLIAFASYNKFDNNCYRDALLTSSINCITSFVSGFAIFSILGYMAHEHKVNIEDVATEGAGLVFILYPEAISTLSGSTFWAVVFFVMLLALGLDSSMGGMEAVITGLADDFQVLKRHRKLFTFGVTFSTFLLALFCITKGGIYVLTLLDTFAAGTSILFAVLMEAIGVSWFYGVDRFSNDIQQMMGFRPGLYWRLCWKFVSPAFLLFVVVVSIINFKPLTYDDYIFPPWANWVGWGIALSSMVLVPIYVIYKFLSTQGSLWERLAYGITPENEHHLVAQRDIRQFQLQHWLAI
Chain of Human α2δ-1 Subunit of Cav2.2 Calcium Channel (P54289 25-1103): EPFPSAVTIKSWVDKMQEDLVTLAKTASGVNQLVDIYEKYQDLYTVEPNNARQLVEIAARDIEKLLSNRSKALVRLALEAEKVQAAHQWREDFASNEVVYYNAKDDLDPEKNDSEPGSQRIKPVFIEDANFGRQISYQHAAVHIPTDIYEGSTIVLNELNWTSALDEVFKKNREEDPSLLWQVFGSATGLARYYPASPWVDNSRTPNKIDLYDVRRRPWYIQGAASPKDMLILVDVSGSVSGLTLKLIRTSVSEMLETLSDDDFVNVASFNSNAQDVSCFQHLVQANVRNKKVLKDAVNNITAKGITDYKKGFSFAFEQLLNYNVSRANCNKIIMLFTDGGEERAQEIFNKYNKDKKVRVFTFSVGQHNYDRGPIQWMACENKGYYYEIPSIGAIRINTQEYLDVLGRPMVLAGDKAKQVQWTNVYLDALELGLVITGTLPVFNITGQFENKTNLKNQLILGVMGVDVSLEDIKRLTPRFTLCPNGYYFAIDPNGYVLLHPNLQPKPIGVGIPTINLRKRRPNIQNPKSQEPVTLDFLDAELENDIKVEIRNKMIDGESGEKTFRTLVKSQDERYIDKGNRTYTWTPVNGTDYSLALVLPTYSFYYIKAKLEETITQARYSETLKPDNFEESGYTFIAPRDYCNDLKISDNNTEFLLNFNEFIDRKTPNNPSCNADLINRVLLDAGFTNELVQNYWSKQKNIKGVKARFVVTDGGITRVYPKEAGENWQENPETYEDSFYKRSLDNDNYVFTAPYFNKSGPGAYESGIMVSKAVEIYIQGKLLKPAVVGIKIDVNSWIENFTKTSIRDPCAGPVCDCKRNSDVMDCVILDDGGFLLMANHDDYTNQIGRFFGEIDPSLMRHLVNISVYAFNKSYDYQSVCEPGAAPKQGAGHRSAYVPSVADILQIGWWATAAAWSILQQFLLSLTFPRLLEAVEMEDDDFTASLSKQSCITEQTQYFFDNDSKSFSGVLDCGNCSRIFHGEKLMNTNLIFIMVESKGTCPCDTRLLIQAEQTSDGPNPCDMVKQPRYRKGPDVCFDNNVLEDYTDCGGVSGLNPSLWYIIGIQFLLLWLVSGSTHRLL

For the compound `CNCCC(Oc1cccc(-n2nc3c(N(C)C)nnc(C)c3c2C)c1)c1cc(F)cc(F)c1` (stereo not drawn) [Example 18, 2-(3-(1-(3,5-difluorophenyl)-3-(methylamino)propoxy)phenyl)-N,N,3,4-tetramethyl-2H-pyrazolo[3,4-d]pyridazin-7-amine], the Ki fell in the range of 100 to 500 nM in experiment [1] and 500 to 5000 nM in experiment [2].

For the compound `CNCC[C@H](Oc1cccc(-n2nc3c(N(C)C)nnc(C)c3c2C)c1)c1ccccc1F` [Example 63, (S)-2-(3-(1-(2-fluorophenyl)-3-(methylamino)propoxy)phenyl)-N,N,3,4-tetramethyl-2H-pyrazolo[3,4-d]pyridazin-7-amine], the Ki was below 100 nM in experiment [1] and 500 to 5000 nM in experiment [2].

As for `CNc1nnc(C)c2c(C)n(-c3cccc(OC(CCN)c4ccccc4F)c3)nc12` (stereo not drawn) [Example 23, 2-(3-(3-amino-1-(2-fluorophenyl)propoxy)phenyl)-N,3,4-trimethyl-2H-pyrazolo[3,4-d]pyridazin-7-amine], the values for the inhibition constant (Ki) in experiment [1] and in experiment [2] were 100 to 500 nM and 500 to 5000 nM, respectively.

Regarding `Cc1nnc(N)c2nn(-c3cccc(OC(CCN)c4ccccc4F)c3)c(C)c12` (stereo not drawn) [Example 28, 2-(3-(3-amino-1-(2-fluorophenyl)propoxy)phenyl)-3,4-dimethyl-2H-pyrazolo[3,4-d]pyridazin-7-amine], the Ki was in the range of 500 to 1000 nM in experiment [1] and 500 to 5000 nM in experiment [2].

With `CNC[C@H](Oc1cccc(-n2nc3c(N(C)C)nnc(C)c3c2C)c1)c1ccccc1` [Example 60, (R)-N,N,3,4-Tetramethyl-2-(3-(2-(methylamino)-1-phenylethoxy)phenyl)-2H-pyrazolo[3,4-d]pyridazin-7-amine], the values for the inhibition constant Ki in experiment [1] and in experiment [2] were 100 to 500 nM and 500 to 5000 nM, respectively.

With `Cc1nnc(N(C)C)c2nn(-c3cccc(OC(CCN)c4ccccc4F)c3)c(C)c12` (stereo not drawn) [Example 19, 2-(3-(3-amino-1-(2-fluorophenyl)propoxy)phenyl)-N,N,3,4-tetramethyl-2H-pyrazolo[3,4-d]pyridazin-7-amine], the inhibitory constant (Ki) in experiment [1] was 100 to 500 nM; in experiment [2], 500 to 5000 nM.

For the compound `CNCCC(Oc1cccc(-n2nc3c(N(C)C)nnc(C)c3c2C)c1)c1ccc(C#N)cc1` (stereo not drawn) [Example 7, 4-(1-(3-(7-(dimethylamino)-3,4-dimethyl-2H-pyrazolo[3,4-d]pyridazin-2-yl)phenoxy)-3-(methylamino)propyl)benzonitrile], the Ki in experiment [1] fell in the range of 100 to 500 nM; in experiment [2], 500 to 5000 nM.

For the compound `CNc1nnc(C)c2c(C)n(-c3cccc(OC(CCN)c4ccccc4)c3)nc12` (stereo not drawn) [Example 24, 2-(3-(3-amino-1-phenylpropoxy)phenyl)-N,3,4-trimethyl-2H-pyrazolo[3,4-d]pyridazin-7-amine], the inhibition constant Ki in experiment [1] lay within 500 to 1000 nM; in experiment [2], 500 to 5000 nM.

As to `CNC(COc1cccc(-n2nc3c(N(C)C)nnc(C)c3c2C)c1)c1ccccc1` (stereo not drawn) [Example 15, N,N,3,4-tetramethyl-2-(3-(2-(methylamino)-2-phenylethoxy)phenyl)-2H-pyrazolo[3,4-d]pyridazin-7-amine], the Ki in experiment [1] was below 100 nM; in experiment [2], 500 to 5000 nM.

In the case of `Cc1nnc(N(C)C)c2nn(-c3cccc(OCC4CCNCC4)c3)c(C)c12` [Example 29, N,N,3,4-tetramethyl-2-(3-(piperidin-4-ylmethoxy)phenyl)-2H-pyrazolo[3,4-d]pyridazin-7-amine], the inhibition constant Ki is at least 1000 nM in experiment [1] and at least 5000 nM in experiment [2].

For `CNCCCC(Oc1cccc(-n2nc3c(N(C)C)nnc(C)c3c2C)c1)c1ccccc1` (stereo not drawn) [Example 6, N,N,3,4-tetramethyl-2-(3-(4-(methylamino)-1-phenylbutoxy)phenyl)-2H-pyrazolo[3,4-d]pyridazin-7-amine], the inhibition constant (Ki) in experiment [1] is 100 to 500 nM; in experiment [2], 500 to 5000 nM.

As to `Cc1nnc(N(C)C)c2nn(-c3cccc(OC(CCN(C)C)c4ccccc4)c3)c(C)c12` (stereo not drawn) [Example 2, 2-(3-(3-(dimethylamino)-1-phenylpropoxy)phenyl)-N,N,3,4-tetramethyl-2H-pyrazolo[3,4-d]pyridazin-7-amine], the values for the inhibitory constant (Ki) in experiment [1] and in experiment [2] were 100 to 500 nM and 500 to 5000 nM, respectively.

For `CNCCC(Oc1cccc(-n2nc3c(N(C)C)nnc(C)c3c2C)c1)c1cccc(C(N)=O)c1` (stereo not drawn) [Example 56, 3-(1-(3-(7-(Dimethylamino)-3,4-dimethyl-2H-pyrazolo[3,4-d]pyridazin-2-yl)phenoxy)-3-(methylamino)propyl)benzamide], the Ki fell in the range of 100 to 500 nM in experiment [1] and 500 to 5000 nM in experiment [2].

`CNCCC(Oc1cccc(-n2nc3c(N(C)CCO)nnc(C)c3c2C)c1)c1ccccc1F` (stereo not drawn) [Example 31, 2-((2-(3-(1-(2-fluorophenyl)-3-(methylamino)propoxy)phenyl)-3,4-dimethyl-2H-pyrazolo[3,4-d]pyridazin-7-yl)(methyl)amino)ethanol]: the inhibition constant (Ki) in experiment [1] is below 100 nM; in experiment [2] it was 500 to 5000 nM.

As for `CNCCC(Oc1cccc(-n2nc3c(N(C)C)nnc(C)c3c2C)c1)c1ccc(F)cc1` (stereo not drawn) [Example 8, 2-(3-(1-(4-fluorophenyl)-3-(methylamino)propoxy)phenyl)-N,N,3,4-tetramethyl-2H-pyrazolo[3,4-d]pyridazin-7-amine], the inhibition constant Ki in experiment [1] is below 100 nM; in experiment [2], 500 to 5000 nM.

Turning to `CNCCC(Oc1cccc(-n2nc3c(N(C)C)nnc(C)c3c2C)c1)c1ccccc1OC` (stereo not drawn) [Example 36, 2-(3-(1-(2-methoxyphenyl)-3-(methylamino)propoxy)phenyl)-N,N,3,4-tetramethyl-2H-pyrazolo[3,4-d]pyridazin-7-amine], the Ki is 100 to 500 nM in experiment [1] and 500 to 5000 nM in experiment [2].

Regarding `Cc1nnc(N(C)C)c2nn(-c3cccc(OCCC(N)c4ccccc4)c3)c(C)c12` (stereo not drawn) [Example 14, 2-(3-(3-amino-3-phenylpropoxy)phenyl)-N,N,3,4-tetramethyl-2H-pyrazolo[3,4-d]pyridazin-7-amine], the inhibitory constant (Ki) lay within 100 to 500 nM in experiment [1] and 500 to 5000 nM in experiment [2].

Consider `CNCCC(Oc1cccc(-n2c(C)c3c(C)nnc(C)c3c2C)c1)c1ccccc1F` (stereo not drawn) [Example 66, 3-(2-fluorophenyl)-N-methyl-3-(3-(1,4,5,7-tetramethyl-6H-pyrrolo[3,4-d]pyridazin-6-yl)phenoxy)propan-1-amine], for which the Ki in experiment [1] was 500 to 1000 nM; in experiment [2] it was 500 to 5000 nM.

The values are drawn from patent publication US20200190081A1, “META SUBSTITUTED PHENYLPYRAZOLO- AND PHENYLPYRROLO- PYRIDAZINE DERIVATIVES HAVING MULTIMODAL ACTIVITY AGAINST PAIN” (ESTEVE PHARMACEUTICALS, S.A., priority 2016, published 2020).
